pKi: −log10 of the molar value.
Experiments:
[1] = target: T1, Beta-carbonic anhydrase 1 (Mycobacterium tuberculosis, UniProt P9WPJ7)
T1 sequence (P9WPJ7 whole entry): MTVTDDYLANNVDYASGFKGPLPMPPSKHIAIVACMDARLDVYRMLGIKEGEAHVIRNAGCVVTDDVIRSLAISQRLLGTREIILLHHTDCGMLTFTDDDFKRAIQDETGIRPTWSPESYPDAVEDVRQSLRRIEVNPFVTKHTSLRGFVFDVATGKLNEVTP
Description: Inhibition of Mycobacterium tuberculosis recombinant Rv1284 beta-carbonic anhydrase after 15 mins by stopped flow CO2 hydration assay

Carbonic anhydrase = target: T2, Carbonic anhydrase (Candida albicans (strain SC5314 / ATCC MYA-2876) (Yeast), UniProt Q5AJ71)
T2 sequence (Q5AJ71 whole entry): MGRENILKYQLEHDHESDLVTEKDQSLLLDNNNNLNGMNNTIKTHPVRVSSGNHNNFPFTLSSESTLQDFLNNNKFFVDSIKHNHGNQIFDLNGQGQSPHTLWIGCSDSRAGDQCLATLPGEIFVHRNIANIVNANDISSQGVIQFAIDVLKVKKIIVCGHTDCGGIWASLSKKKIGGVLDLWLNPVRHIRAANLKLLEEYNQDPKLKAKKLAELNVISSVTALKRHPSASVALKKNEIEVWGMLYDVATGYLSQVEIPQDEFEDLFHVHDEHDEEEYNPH
Description: Inhibition of Candida albicans recombinant Nce103 beta-carbonic anhydrase after 15 mins by stopped flow CO2 hydration assay

Carbonic anhydrase 2 [2] = target: T3, Carbonic anhydrase 2 (Cryptococcus neoformans, UniProt Q3I4V7)
T3 sequence (Q3I4V7 whole entry): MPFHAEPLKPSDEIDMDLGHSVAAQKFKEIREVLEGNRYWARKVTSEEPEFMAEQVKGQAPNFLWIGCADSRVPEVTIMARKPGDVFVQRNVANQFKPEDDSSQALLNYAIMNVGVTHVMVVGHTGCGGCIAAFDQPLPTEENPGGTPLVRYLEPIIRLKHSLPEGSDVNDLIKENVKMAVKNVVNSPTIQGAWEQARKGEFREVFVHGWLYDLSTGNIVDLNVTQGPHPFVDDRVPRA
Description: Inhibition of Cryptococcus neoformans recombinant Can2 beta-carbonic anhydrase after 15 mins by stopped flow CO2 hydration assay

[3] = target: T4, PROBABLE TRANSMEMBRANE CARBONIC ANHYDRASE (CARBONATE DEHYDRATASE) (CARBONIC DEHYDRATASE) (Mycobacterium tuberculosis, UniProt P96878)
T4 sequence (P96878 whole entry): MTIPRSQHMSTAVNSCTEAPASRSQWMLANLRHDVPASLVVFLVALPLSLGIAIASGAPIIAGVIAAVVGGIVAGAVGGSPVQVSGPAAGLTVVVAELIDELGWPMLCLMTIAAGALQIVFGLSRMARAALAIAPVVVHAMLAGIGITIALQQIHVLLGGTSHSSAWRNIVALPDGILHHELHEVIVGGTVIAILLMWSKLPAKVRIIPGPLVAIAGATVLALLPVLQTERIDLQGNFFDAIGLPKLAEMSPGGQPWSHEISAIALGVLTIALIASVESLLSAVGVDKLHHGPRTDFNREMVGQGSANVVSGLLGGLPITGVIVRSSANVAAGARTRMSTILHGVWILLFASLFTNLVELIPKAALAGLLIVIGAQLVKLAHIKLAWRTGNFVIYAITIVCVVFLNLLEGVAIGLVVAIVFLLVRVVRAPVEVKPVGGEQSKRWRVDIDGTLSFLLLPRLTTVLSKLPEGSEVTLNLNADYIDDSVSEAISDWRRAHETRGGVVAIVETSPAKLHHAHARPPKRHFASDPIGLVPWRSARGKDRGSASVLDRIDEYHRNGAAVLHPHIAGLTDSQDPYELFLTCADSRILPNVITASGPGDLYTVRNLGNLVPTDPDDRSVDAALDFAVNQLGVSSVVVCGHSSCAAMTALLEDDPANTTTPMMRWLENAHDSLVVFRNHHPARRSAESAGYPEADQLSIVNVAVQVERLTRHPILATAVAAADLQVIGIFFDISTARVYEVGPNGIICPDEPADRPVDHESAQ
Description: Inhibition of Mycobacterium tuberculosis recombinant Rv3273 beta-carbonic anhydrase after 15 mins by stopped flow CO2 hydration assay

Carbonic anhydrase 1 = Carbonic anhydrase 1 (Homo sapiens, UniProt P00915)
Description: Inhibition of human recombinant alpha-carbonic anhydrase 1 after 15 mins by stopped flow CO2 hydration assay

Carbonic anhydrase 2 [4] = target: Carbonic anhydrase 2 (Homo sapiens, UniProt P00918)
Description: Inhibition of human recombinant alpha-carbonic anhydrase 2 after 15 mins by stopped flow CO2 hydration assay

[5] = target: T5, Beta-carbonic anhydrase 1 (Mycobacterium tuberculosis) (UniProt P9WPJ7)
T5 sequence (whole entry): T1 sequence (P9WPJ7 whole entry)

Carbonic anhydrase 1, sequence (P00915 whole entry): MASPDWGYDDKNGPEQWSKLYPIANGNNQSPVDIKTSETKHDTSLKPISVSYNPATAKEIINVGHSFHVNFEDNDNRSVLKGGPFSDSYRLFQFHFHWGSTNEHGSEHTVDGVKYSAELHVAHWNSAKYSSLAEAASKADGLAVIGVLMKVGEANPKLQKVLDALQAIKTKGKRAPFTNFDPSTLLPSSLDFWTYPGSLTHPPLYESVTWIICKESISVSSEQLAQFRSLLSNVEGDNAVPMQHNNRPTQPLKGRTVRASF

COC(=O)/C=C/C(=O)N[C@H](Cc1ccc(O)c(Cl)c1)C(=O)O [(-)-XYLARIAMIDE A] showed a pKi [1] of 6.08, a pKi (Carbonic anhydrase) of 5.99 and a pKi (Carbonic anhydrase 2 [2]) of 5.94. For the same compound, the pKi [3] was 4.95.
NC(=O)Cc1ccc(O)cc1 gave a pKi [1] of 6.07, a pKi (Carbonic anhydrase) of 6.04 and a pKi (Carbonic anhydrase 2 [2]) of 6.08. The pKi [3] was 5.04.
Work on CCCCNC(=O)Cc1ccc(O)c(Cl)c1 yielded a pKi (Carbonic anhydrase 1) of 4.97, a pKi [1] of 4.94 and a pKi (Carbonic anhydrase) of 6.09. It also gave a pKi (Carbonic anhydrase 2 [2]) of 6.14, a pKi [3] of 4.98 and a pKi (Carbonic anhydrase 2 [4]) of 5.03.
With COc1cc([C@@H]2[C@@H](C)[C@H](C)[C@H]2c2ccc(O)c(OC)c2)ccc1O [ENDIANDRIN A] the pKi (Carbonic anhydrase 1) was 3.43, the pKi [1] was 6.09 and the pKi (Carbonic anhydrase) was 6.14. The pKi (Carbonic anhydrase 2 [2]) was 6.11, the pKi [3] was 5.05 and the pKi (Carbonic anhydrase 2 [4]) was 4.93.
Compound O=C(Cc1ccc(O)c(Cl)c1)NCCc1ccccc1 has a pKi (Carbonic anhydrase 1) of 5.02, a pKi [1] of 6.10 and a pKi (Carbonic anhydrase) of 6.03. It also gave a pKi (Carbonic anhydrase 2 [2]) of 6.09, a pKi [3] of 6.01 and a pKi (Carbonic anhydrase 2 [4]) of 5.01.
Work on COc1cccc(CCNC(=O)Cc2ccc(O)c(Cl)c2)c1 yielded a pKi [1] of 5.90, a pKi (Carbonic anhydrase) of 6.14 and a pKi (Carbonic anhydrase 2 [2]) of 6.03. For the same compound, the pKi [3] was 6.04.
In the case of NS(=O)(=O)c1ccc(CCNC(=O)Cc2ccc(O)c(Cl)c2)cc1, the pKi [1] was 5.94, the pKi (Carbonic anhydrase) was 6.10 and the pKi (Carbonic anhydrase 2 [2]) was 6.13. The pKi [3] was 6.07.
O=C(O)Cc1ccc(O)cc1 showed a pKi (Carbonic anhydrase 1) of 3.51, a pKi [1] of 4.97 and a pKi (Carbonic anhydrase) of 5.99. The pKi (Carbonic anhydrase 2 [2]) was 6.05, the pKi [3] was 4.94 and the pKi (Carbonic anhydrase 2 [4]) was 4.99.
For COc1ccc(CCNC(=O)Cc2ccc(O)c(Cl)c2)cc1OC, the pKi [1] was 5.75, the pKi (Carbonic anhydrase) was 6.12 and the pKi (Carbonic anhydrase 2 [2]) was 6.07. It also gave a pKi [3] of 6.05.
In the case of COc1cc([C@@H]2[C@@H](C)[C@@H](C)[C@@H]2c2ccc(O)c(OC)c2)ccc1O [ENDIANDRIN B], the pKi (Carbonic anhydrase 1) was 3.45, the pKi [1] was 6.10 and the pKi (Carbonic anhydrase) was 6.15. For the same compound, the pKi (Carbonic anhydrase 2 [2]) was 6.02, the pKi [3] was 6.05 and the pKi (Carbonic anhydrase 2 [4]) was 4.92.
For OCCc1ccc(O)cc1 [TYROSOL], the pKi (Carbonic anhydrase 1) was 3.37, the pKi [1] was 6.07 and the pKi (Carbonic anhydrase) was 5.96. The fold change (FC) [5] was 75, the pKi (Carbonic anhydrase 2 [2]) was 5.97 and the pKi [3] was 4.92. For the same compound, the pKi (Carbonic anhydrase 2 [4]) was 5.06.
Compound COc1cc(C)cc2oc3ccc(O)c(C(=O)O)c3c(=O)c12 has a pKi [1] of 4.98, a pKi (Carbonic anhydrase) of 5.97 and a pKi (Carbonic anhydrase 2 [2]) of 5.95. The pKi [3] was 4.94.
NS(=O)(=O)Cc1noc2ccccc12 [ZONISAMIDE] showed a pKi [1] of 3.54.
With Oc1ccccc1 [PHENOL] the pKi [1] was 4.19, the pKi (Carbonic anhydrase) was 4.76 and the pKi (Carbonic anhydrase 2 [2]) was 4.59. For the same compound, the pKi [3] was 4.10.
Work on O=C(O)Cc1ccc(O)c(Cl)c1 yielded a pKi [1] of 4.99, a pKi (Carbonic anhydrase) of 5.97 and a pKi (Carbonic anhydrase 2 [2]) of 5.95. The pKi [3] was 4.97.
CC(C)(C)NC(=O)Cc1ccc(O)c(Cl)c1 was tested, and the pKi [1] was 4.91, the pKi (Carbonic anhydrase) was 6.02 and the pKi (Carbonic anhydrase 2 [2]) was 6.04. The pKi [3] was 4.99.
Compound COCCNC(=O)Cc1ccc(O)c(Cl)c1 has a pKi (Carbonic anhydrase 1) of 3.80, a pKi [1] of 4.96 and a pKi (Carbonic anhydrase) of 6.00. The pKi (Carbonic anhydrase 2 [2]) was 6.02, the pKi [3] was 5.94 and the pKi (Carbonic anhydrase 2 [4]) was 4.98.
With CC1(C)O[C@@H]2[C@@H](CO[C@@]3(COS(N)(=O)=O)OC(C)(C)O[C@@H]23)O1 [TOPIRAMATE] the pKi [3] was 5.52.
COc1cc(/C=C2\N=C(N)NC2=O)ccc1O [POLYANDROCARPAMINE A] was tested, and the pKi (Carbonic anhydrase 1) was 4.98, the pKi [1] was 4.93 and the pKi (Carbonic anhydrase) was 6.04. It also gave a pKi (Carbonic anhydrase 2 [2]) of 6.05, a pKi [3] of 6.04 and a pKi (Carbonic anhydrase 2 [4]) of 5.02.
COC(=O)/C=C/C(=O)N[C@@H](Cc1ccc(O)c(Cl)c1)C(=O)O [(+)-XYLARIAMIDE A] gave a pKi [1] of 6.15, a pKi (Carbonic anhydrase) of 5.97 and a pKi (Carbonic anhydrase 2 [2]) of 5.95. The pKi [3] was 4.96.
With NC1=N/C(=C\c2ccc(O)c(O)c2)C(=O)N1 [POLYANDROCARPAMINE B] the pKi [1] was 6.04, the pKi (Carbonic anhydrase) was 6.05 and the pKi (Carbonic anhydrase 2 [2]) was 6.02. The pKi [3] was 6.04.
NC(=O)Cc1ccc(O)c(Cl)c1 was tested, and the pKi [1] was 4.98, the pKi (Carbonic anhydrase) was 6.00 and the pKi (Carbonic anhydrase 2 [2]) was 6.07. For the same compound, the pKi [3] was 4.95.
In the case of Nc1ccc(S(N)(=O)=O)cc1 [SULFANILAMIDE], the pKi [3] was 5.15.
With COc1cc(CO)cc2oc3ccc(O)c(C(=O)O)c3c(=O)c12 the pKi [1] was 6.00, the pKi (Carbonic anhydrase) was 6.00 and the pKi (Carbonic anhydrase 2 [2]) was 5.97. For the same compound, the pKi [3] was 4.96.
O=C(Cc1ccc(O)c(Cl)c1)NCc1ccccc1 gave a pKi (Carbonic anhydrase 1) of 4.98, a pKi [1] of 4.91 and a pKi (Carbonic anhydrase) of 6.11. The pKi (Carbonic anhydrase 2 [2]) was 6.14, the pKi [3] was 6.01 and the pKi (Carbonic anhydrase 2 [4]) was 4.94.
For COc1cc(C[C@@H](C)[C@H](C)Cc2ccc(O)c(OC)c2)ccc1O [(-)-DIHYDROGUAIARETICACID], the pKi (Carbonic anhydrase 1) was 3.51, the pKi [1] was 6.07 and the pKi (Carbonic anhydrase) was 6.21. It also gave a pKi (Carbonic anhydrase 2 [2]) of 6.09, a pKi [3] of 5.04 and a pKi (Carbonic anhydrase 2 [4]) of 3.64.
